Results reported in PubChem BioAssay AID330 (DTP/NCI, 2004).
Several values for one entry are separate records, joined by “and”; a condition that tells them apart may be missing. Equal values may be shown once. Toxic doses and inconclusive results are not listed. The calls were made as follows: active = survival T/C of 150% or more; inactive = T/C below 125% in these data.

Test system: P388 leukemia ip, CD2F1 mice, survival T/C
Experiment: NCI In Vivo Anticancer Drug Screen. Data for tumor model P388 Leukemia (intraperitoneal) in CD2F1 (CDF1) mice
Conditions: endpoint: median survival time, higher = longer survival
Outline: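 Mice carrying the transplanted tumor received test compound or vehicle. Survival was recorded in each group, and the value is the treated-group measurement divided by that of the vehicle-treated control group.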

[1] = dose: 50.0 mg/kg/injection, schedule: Q01DX009 (ip), vehicle: Klucel (hydroxypropylcellulose) (HPC)
[2] = dose: 100.0 mg/kg/injection, schedule: Q01DX009 (ip), vehicle: Klucel (hydroxypropylcellulose) (HPC)
[3] = dose: 200.0 mg/kg/injection, schedule: Q01DX009 (ip), vehicle: Klucel (hydroxypropylcellulose) (HPC)
[4] = dose: 100.0 mg/kg/injection, schedule: Q01DX009 (ip), vehicle: saline with Tween-80
[5] = dose: 200.0 mg/kg/injection, schedule: Q01DX009 (ip), vehicle: saline with Tween-80
[6] = dose: 50.0 mg/kg/injection, schedule: Q01DX009 (ip), vehicle: saline with Tween-80

Measured: T/C

O=C1CC2(CCc3ccccc32)C(=O)N1CN1CCOCC1 (stereo unspecified)
inactive: dose: 60.0 mg/kg/injection, schedule: Q01DX005 (ip), vehicle: saline with Tween-80 100 % of control | dose: 120.0 mg/kg/injection, schedule: Q01DX005 (ip), vehicle: saline with Tween-80 104 % of control | dose: 240.0 mg/kg/injection, schedule: Q01DX005 (ip), vehicle: saline with Tween-80 100 % of control

O=[N+]([O-])c1cccnc1C1OCCO1
inactive: dose: 50.0 mg/kg/injection, schedule: Q01DX009 (ip), vehicle: saline + Tween-80 + alcohol 102 % of control | dose: 100.0 mg/kg/injection, schedule: Q01DX009 (ip), vehicle: saline + Tween-80 + alcohol 99 % of control

O=C1CCC(C(=O)N(C(=O)NC2CCCCC2)C2CCCCC2)Cc2ccccc21 (stereo unspecified)
inactive: dose: 60.0 mg/kg/injection, schedule: Q01DX005 (ip), vehicle: Klucel (hydroxypropylcellulose) (HPC) 98 % of control | dose: 120.0 mg/kg/injection, schedule: Q01DX005 (ip), vehicle: Klucel (hydroxypropylcellulose) (HPC) 92 % of control | dose: 240.0 mg/kg/injection, schedule: Q01DX005 (ip), vehicle: Klucel (hydroxypropylcellulose) (HPC) 90 % of control

Cc1nnc(Cc2ccco2)c2n[nH]c(C)c12
inactive: [1] 96 % of control | [2] 99 % of control | [3] 100 % of control

Brc1cc(-c2ccccc2)no1
inactive: [1] 104 % of control | [2] 111 % of control | [3] 109 % of control

Cc1ccc(-c2cc(Cl)c3cc(S(=O)(=O)F)ccc3n2)cc1
inactive: [4] 104 % of control | dose: 100.0 mg/kg/injection, schedule: Q04DX003 (ip), vehicle: saline with Tween-80 100 % of control | [5] 100 % of control | dose: 200.0 mg/kg/injection, schedule: Q04DX003 (ip), vehicle: saline with Tween-80 100 % of control | dose: 400.0 mg/kg/injection, schedule: Q01DX009 (ip), vehicle: saline with Tween-80 104 % of control | dose: 400.0 mg/kg/injection, schedule: Q04DX003 (ip), vehicle: saline with Tween-80 100 % of control

N#Cc1c(-c2ccc(Cl)c(Cl)c2)c(-c2ccc(Cl)c(Cl)c2)nn(CCO)c1=O
inactive: dose: 25.0 mg/kg/injection, schedule: Q04DX002 (ip), vehicle: distilled water + Tween-80 95 % of control | dose: 50.0 mg/kg/injection, schedule: Q04DX002 (ip), vehicle: distilled water + Tween-80 93 % of control | dose: 100.0 mg/kg/injection, schedule: Q04DX002 (ip), vehicle: distilled water + Tween-80 93 % of control | dose: 200.0 mg/kg/injection, schedule: Q04DX002 (ip), vehicle: distilled water + Tween-80 87 % of control

N#CC1C(=O)NC(=O)C(C#N)C1c1ccc(C2C(C#N)C(=O)NC(=O)C2C#N)cc1 (stereo unspecified)
inactive: [1] 105 % of control | [2] 100 % of control | [3] 113 % of control

CC(C)(C)C#CP(=O)(C#CC(C)(C)C)C#CC(C)(C)C
inactive: dose: 50.0 mg/kg/injection, schedule: Q01DX001 (ip), vehicle: Klucel (hydroxypropylcellulose) (HPC) 97 % of control | dose: 100.0 mg/kg/injection, schedule: Q01DX001 (ip), vehicle: Klucel (hydroxypropylcellulose) (HPC) 99 % of control | dose: 200.0 mg/kg/injection, schedule: Q01DX001 (ip), vehicle: Klucel (hydroxypropylcellulose) (HPC) 95 % of control

CCCCCCCCN1CCCN(/N=C/c2c3c(O)c4c(O)c(C)c5c(c4c2O)C(=O)C(C)(O/C=C/C(OC)C(C)C(OC(C)=O)C(C)C(O)C(C)C(O)C(C)/C=C/C=C(C)C(=O)N3)O5)CC1 (stereo unspecified)
inactive: [6] 97 % of control | [4] 100 % of control | [5] 91 % of control

[NH-]CC(=O)O.[NH-]CC(=O)O.[Pt+2]
inactive: dose: 3.13 mg/kg/injection, schedule: Q01DX009 (ip), vehicle: water 97 % of control | dose: 6.25 mg/kg/injection, schedule: Q01DX009 (ip), vehicle: distilled water + Tween-80 119 % of control | dose: 6.25 mg/kg/injection, schedule: Q01DX009 (ip), vehicle: water 90 % of control and 112 % of control | dose: 12.5 mg/kg/injection, schedule: Q01DX009 (ip), vehicle: distilled water + Tween-80 111 % of control | dose: 12.5 mg/kg/injection, schedule: Q01DX009 (ip), vehicle: water 106 % of control and 110 % of control | dose: 25.0 mg/kg/injection, schedule: Q01DX009 (ip), vehicle: water 100 % of control and 112 % of control | dose: 50.0 mg/kg/injection, schedule: Q01DX009 (ip), vehicle: distilled water + Tween-80 119 % of control | dose: 50.0 mg/kg/injection, schedule: Q01DX009 (ip), vehicle: water 97 % of control | dose: 100.0 mg/kg/injection, schedule: Q01DX009 (ip), vehicle: distilled water + Tween-80 115 % of control | dose: 100.0 mg/kg/injection, schedule: Q01DX009 (ip), vehicle: water 97 % of control | dose: 200.0 mg/kg/injection, schedule: Q01DX009 (ip), vehicle: distilled water + Tween-80 98 % of control

CCN(CC)N=Nc1ccccc1-c1nc(N)c2ccccc2n1
inactive: dose: 12.5 mg/kg/injection, schedule: Q04DX003 (ip), vehicle: Klucel (hydroxypropylcellulose) (HPC) 105 % of control | dose: 25.0 mg/kg/injection, schedule: Q04DX003 (ip), vehicle: Klucel (hydroxypropylcellulose) (HPC) 102 % of control and 103 % of control and 94 % of control | dose: 50.0 mg/kg/injection, schedule: Q04DX003 (ip), vehicle: Klucel (hydroxypropylcellulose) (HPC) 98 % of control and 111 % of control and 91 % of control | dose: 100.0 mg/kg/injection, schedule: Q04DX003 (ip), vehicle: Klucel (hydroxypropylcellulose) (HPC) 102 % of control (2×) and 94 % of control | dose: 200.0 mg/kg/injection, schedule: Q04DX003 (ip), vehicle: Klucel (hydroxypropylcellulose) (HPC) 106 % of control and 119 % of control and 86 % of control

CN1CCCN(C)C1c1ccc(Cl)cc1
inactive: dose: 12.5 mg/kg/injection, schedule: Q01DX009 (ip), vehicle: saline sonified 90 % of control | dose: 25.0 mg/kg/injection, schedule: Q01DX009 (ip), vehicle: saline sonified 90 % of control

N#CCCCN1C(=O)c2ccccc2C1=O
inactive: [1] 102 % of control | [2] 104 % of control

O=C(O)c1ccccc1N=N/C(=N\Nc1ccccc1C(=O)O)c1ccnc2ccccc12
inactive: [6] 100 % of control | [4] 97 % of control | [5] 103 % of control

CCOc1c(C)cc(Cc2ccc3c(c2)OCO3)cc1C
inactive: dose: 50.0 mg/kg/injection, schedule: Q01DX005 (ip), vehicle: saline with Tween-80 108 % of control | dose: 100.0 mg/kg/injection, schedule: Q01DX005 (ip), vehicle: saline with Tween-80 101 % of control | dose: 200.0 mg/kg/injection, schedule: Q01DX005 (ip), vehicle: saline with Tween-80 92 % of control

CN(C)c1ncnc2c1ccn2CC(O)CO (stereo unspecified)
inactive: dose: 50.0 mg/kg/injection, schedule: Q01DX005 (ip), vehicle: distilled water + alcohol 109 % of control | dose: 100.0 mg/kg/injection, schedule: Q01DX005 (ip), vehicle: distilled water + alcohol 101 % of control | dose: 200.0 mg/kg/injection, schedule: Q01DX005 (ip), vehicle: distilled water + alcohol 97 % of control

O=C1OCC(Cc2ccc3c(c2)OCO3)C1Cc1ccc2c(c1)OCO2 (stereo unspecified)
inactive: dose: 50.0 mg/kg/injection, schedule: Q01DX009 (ip), vehicle: saline 109 % of control | dose: 100.0 mg/kg/injection, schedule: Q01DX009 (ip), vehicle: saline 93 % of control | dose: 200.0 mg/kg/injection, schedule: Q01DX009 (ip), vehicle: saline 99 % of control

O=C(CC1(O)C(=O)N(CN2CCCCC2)c2ccccc21)c1ccccc1 (stereo unspecified)
inactive: [6] 110 % of control | [4] 97 % of control

C/C=C1\C[N+]2(C)C3CC1C(C[O-])(C(=O)OC)C2Cc1c3[nH]c2ccccc12 (stereo unspecified)
inactive: dose: 0.75 mg/kg/injection, schedule: Q01DX005 (ip), vehicle: Klucel (hydroxypropylcellulose) (HPC) 97 % of control | dose: 1.5 mg/kg/injection, schedule: Q01DX005 (ip), vehicle: Klucel (hydroxypropylcellulose) (HPC) 91 % of control | dose: 3.0 mg/kg/injection, schedule: Q01DX005 (ip), vehicle: Klucel (hydroxypropylcellulose) (HPC) 96 % of control | dose: 6.0 mg/kg/injection, schedule: Q01DX005 (ip), vehicle: Klucel (hydroxypropylcellulose) (HPC) 92 % of control
